Test results published in patent publication US6403601B1, “N-(2-phenyl-4-piperidinybutyl)-5,6,7,8-tetrahydro-1-naphthalenecarboxamides and their use as neurokinin 1 (NK1) and/or neurokinin 2 (NK2) receptor antagonists” (Astrazeneca AB, priority 1998, dated 2002).

Legend:
[1] = target: T1, NK1 (Oryctolagus cuniculus, UniProt G1SEI7); experiment: Rabbit Pulmonary Artery: NK1 In Vitro Functional Assay (Test C); format: cell-based; conditions: agonist ASMSP
T1 construct: The pulmonary arteries are isolated from the rest of the tissues and cut in half to serve as pairs; from tissue; host or cells: rabbit pulmonary artery rings, endothelium intact
T1 sequence (G1SEI7 1-407): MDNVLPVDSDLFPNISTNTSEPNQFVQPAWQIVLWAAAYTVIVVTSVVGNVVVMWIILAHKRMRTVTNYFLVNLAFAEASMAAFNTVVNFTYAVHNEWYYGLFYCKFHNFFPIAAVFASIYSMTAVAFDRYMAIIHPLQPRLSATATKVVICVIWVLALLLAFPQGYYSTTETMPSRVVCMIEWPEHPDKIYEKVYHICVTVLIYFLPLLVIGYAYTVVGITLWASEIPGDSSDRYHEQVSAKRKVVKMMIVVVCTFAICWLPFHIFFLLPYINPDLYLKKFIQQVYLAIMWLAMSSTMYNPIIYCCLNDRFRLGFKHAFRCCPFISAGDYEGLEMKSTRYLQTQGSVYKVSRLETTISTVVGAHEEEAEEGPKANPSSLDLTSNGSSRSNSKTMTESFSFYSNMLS
Method: Rabbit Pulmonary Artery: NK1 In Vitro Functional Assay (Test C)
The ability of a Compound of the invention to antagonize the action of the agonist Ac-[Arg^6, Sar^9, Met(O2)^11]
Male New Zealand white rabbits are euthanized via i.v. injection into an ear vein with 60 mg/kg Nembutal (50 mg/mL). Preceding the Nembutal into the vein is Heparin (1000 units/mL) at 0.0025 ml/kg for anticoagulant purposes. The chest cavity is opened from the top of the rib cage to the sternum and the heart, lungs and part of the trachea are removed. The pulmonary arteries are isolated from the rest of the tissues and cut in half to serve as pairs.
The segments are suspended between stainless steel stirrups, so as not to remove any of the endothelium, and placed in water-jacketed (37° C.) tissue baths containing physiological salt solution of the following composition (mM): NaCl, 118.0; KCl, 4.7; CaCl2, 1.8; MgCl2, 0.54; NaH2PO4, 1.0; NaHCO3, 25.0; glucose, 11.0; indomethacin, 0.005(to inhibit cyclooxygenase); and dl-Propranolol, 0.00l(to block β receptors); gassed continuously with 95% O2-5% CO2. Responses are measured on a Grass polygraph via Grass FT-03 transducers and the electrical signals (data) acquired using a Mi^2 software/hardware system for subsequent conversion to measures of relaxation. […]

[2] = target: T2, NK1 receptors (Cavia porcellus, UniProt P30547); experiment: NK1 In Vivo Functional Assay (Test E), agonist-induced bronchoconstriction in anesthetized guinea pigs; design: species or system guinea pig; conditions: 120 minutes prior to agonist ASMSP, Dose Ratio of ED50 in presence/absence of antagonist
T2 construct: from tissue; host or cells: whole anesthetized guinea pig (airways)
T2 sequence (P30547 whole entry): as the sequence (G1SEI7 1-407) above, with S176G, E186S, G329A, L342F, E368D, A369P, N376T, M395V, F399S counted along it
Method: NK1 and NK2 In Vivo Functional Assay (Test E)
Exp. Ther., 1993, Vol 267(3), pp 1168-1175. The assay is carried out as follows.
Compounds are tested in anesthetized guinea pigs pretreated with i.v. indomethacin (10 mg/kg, 20 min.), propranolol (0.5 mg/kg, 15 min.), and thiorphan (10 mg/kg, 10 min).
Antagonists or vehicle are administered i.v. and orally, 30 and 120 minutes prior to increasing concentrations of agonist, respectively. The agonists used in these studies are ASMSP (Ac-[Arg^6,Sar^9,Met(O2)^11]-SP(6-11)) and BANK (β-ala-8 NKA4-10).
Administered i.v., ASMSP is selective for NK1 receptors, and BANK is selective for NK2 receptors. Maximum response is defined as zero conductance (GL, 1/Rp). ED50 values are calculated (the dose of agonist resulting in a reduction of GL to 50% of baseline), and converted to the negative logarithm (−logED50). The ED50 values, obtained in the presence (P) and absence (A) of antagonist, are used to calculate a Dose Ratio (P/A), an expression of potency. Data are expressed as mean±SEM and statistical differences were determined using ANOVA/Tukey-Kramer and Student's t-test , with p<0.05 considered statistically significant.

[3] = target: T3, NK2 (Oryctolagus cuniculus, UniProt P79218); experiment: Rabbit Pulmonary Artery: NK2 In Vitro Functional Assay (Test D); format: cell-based; conditions: agonist BANK; -log molar KB; read-out: Rabbit Pulmonary Artery NK2 pKb (Test D) (converted)
T3 construct: The pulmonary arteries are isolated from the rest of the tissues, then rubbed over an intimal surface to remove the endothelium; from tissue; host or cells: rabbit pulmonary artery rings, endothelium removed
T3 sequence (P79218 1-384): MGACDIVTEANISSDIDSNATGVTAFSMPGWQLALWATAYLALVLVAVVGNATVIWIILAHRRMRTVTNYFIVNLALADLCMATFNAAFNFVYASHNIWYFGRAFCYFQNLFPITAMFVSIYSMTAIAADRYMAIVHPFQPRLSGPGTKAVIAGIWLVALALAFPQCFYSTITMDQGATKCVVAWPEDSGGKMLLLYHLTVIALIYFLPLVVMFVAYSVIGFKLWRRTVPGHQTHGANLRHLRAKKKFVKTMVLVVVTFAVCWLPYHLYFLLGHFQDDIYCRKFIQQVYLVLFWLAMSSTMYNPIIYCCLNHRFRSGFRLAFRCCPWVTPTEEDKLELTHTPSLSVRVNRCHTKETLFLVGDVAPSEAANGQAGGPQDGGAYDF
Method: NK2 In Vitro Functional Assay (Test D)
The ability of a Compound of the invention to antagonize the action of the agonist [β-ala^8] […] Male New Zealand white rabbits are euthanized via i.v. injection into an ear vein with 60 mg/kg Nembutal (50 mg/mL). Preceding the Nembutal into the vein is Heparin (1000 units/mL) at 0.0025 mL/kg for anticoagulant purposes. The chest cavity is opened from the top of the rib cage to the stemum and a small incision is made into the heart so that the left and right pulmonary arteries can be cannulated with polyethylene tubing (PE260 and PE190 respectively). […] Responses are measured on a Grass polygraph via Grass FT-03 transducers and the electrical signals (data) acquired using a Mi^2 software/hardware system for subsequent conversion to measures of contraction. […]
For non-competitive antagonists, the percent inhibition of contraction is determined at a given concentration of the antagonist Percent inhibition is determined when a tested Compound produces a statistically significant (p<0.05) reduction of the total contraction which is calculated using the total contraction as a percent of the control value. Potencies of competitive Compounds are determined by calculating the apparent dissociation constants (KB) for each concentration tested using the standard equation: […]

| Compound | inhibition at 0.01 µM ([1]; inhibition of relaxation at 10^−8 M) [%] | Oral Activity (Test E) NK1 P/A [2] | Kb [3] [µM] | Kb ([1]; -log molar KB, read-out: Rabbit Pulmonary Artery NK1 pKb (Test C) (converted)) [µM] |
| --- | --- | --- | --- | --- |
| COc1c(C#N)cc2c(c1C(=O)N(C)C[C@@H](CCN1CCC(c3ccccc3[S@+](C)[O-])CC1)c1ccc(Cl)c(Cl)c1)CCCC2 [Example 5, N-[(S)-2-(3,4-Dichlorophenyl)-4-[4-[(S)-2-methylsulfinylphenyl]-1-piperidinyl]butyl]-N-methyl-3-cyano-2-methoxy-5,6,7,8-tetrahydro-1-naphthamide] | 74 | 454 | 0.0794 |  |
| CN(C[C@@H](CCN1CCC(c2ccccc2[S@+](C)[O-])CC1)c1ccc(Cl)c(Cl)c1)C(=O)c1cc(C#N)cc2c1CCCC2 [Example 6, N-[2-(S)-(3,4-Dichlorophenyl)4-[-4-[(S)-2-(methylsulfinyl)phenyl]-1-piperidinyl]butyl]-N-methyl-3-cyano-5,6,7.8-tetrahydro-1-naphthamide] |  | 147 | 0.0251 | 0.00501 |
